Values quoted from earlier work, collected in patent US5817671A, “5-HT1F agonists” (Eli Lilly and Company, priority 1997, dated 1998).
One block for each molecule: values may come before it.

Assays:
[1] = in vivo
[2] = tested on: neurogenic inflammation, peptide extravasation; conditions: Moskowitz, Neurology 43(suppl. 3), S16-S20 (1993)
[3] = in vivo; remark: listed apart in the source
[4] = treatment of migraine
[5] = tested on: exploratory behavior of arthritic rats; conditions: arthritic animals; Larsen and Arnt (1985)
[6] = target: T1, 5-HT1F receptor (Homo sapiens, UniProt P30939); conditions: reported by Weinshank et al., WO93/14201
T1 sequence (P30939 1-366): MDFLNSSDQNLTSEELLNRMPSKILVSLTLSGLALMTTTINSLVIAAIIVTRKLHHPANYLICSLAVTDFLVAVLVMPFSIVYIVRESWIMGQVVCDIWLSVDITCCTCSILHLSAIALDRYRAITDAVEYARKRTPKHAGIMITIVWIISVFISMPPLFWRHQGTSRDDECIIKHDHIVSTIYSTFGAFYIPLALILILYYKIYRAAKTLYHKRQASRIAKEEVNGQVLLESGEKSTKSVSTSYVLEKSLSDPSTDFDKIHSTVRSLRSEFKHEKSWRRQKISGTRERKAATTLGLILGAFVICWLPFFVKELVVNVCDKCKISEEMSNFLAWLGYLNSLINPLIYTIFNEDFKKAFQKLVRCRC

bioavailability (in words) [1]: low bioavailability
duration of action (in words) [3]: relatively short duration of action
SMILES: CNS(=O)(=O)Cc1ccc2[nH]cc(CCN(C)C)c2c1 [Sumatriptan]
block of neurogenic inflammation (in words) [2]: neurogenic inflammation is blocked
undesirable side effects (in words) [4]: undesirable side effects, particularly vasoconstriction

SMILES: CN(C)CCCC1(c2ccc(F)cc2)OCc2cc(C#N)ccc21 (stereo not drawn) [citalopram]
effect on exploratory behavior (in words) [5]: improve exploratory behavior

SMILES: NCCc1c[nH]c2ccc(O)cc12 [serotonin]
inhibition of forskolin stimulated cAMP production (in words) [6]: inhibit forskolin stimulated cAMP production
